The results in this text go back to US11964956B2, “Cannabinergic compounds and uses thereof” (Northeastern University, priority 2012, dated 2024).

Read-outs that look alike come from different tables or passages of the source.

For test [1], the target named is T1, rCB1 (Rattus norvegicus, UniProt P20272). Briefly: rCB1 competition-equilibrium binding with [3H]CP-55,940, rat brain membranes. Also on record: Frozen rat brains (CB1 source) are obtained from Pel-Freeze Biologicals; tissue Pel-Freeze Biologicals (Rogers, AK); host or cells: rat brain membranes. The method, then: Frozen rat brains (CB1 source) are obtained from Pel-Freeze Biologicals (Rogers, AK) and stored at −80° C. until use. Membranes are prepared according to the method described by Dodd et al. and used in our laboratory as reported.
T1 sequence (P20272 whole entry): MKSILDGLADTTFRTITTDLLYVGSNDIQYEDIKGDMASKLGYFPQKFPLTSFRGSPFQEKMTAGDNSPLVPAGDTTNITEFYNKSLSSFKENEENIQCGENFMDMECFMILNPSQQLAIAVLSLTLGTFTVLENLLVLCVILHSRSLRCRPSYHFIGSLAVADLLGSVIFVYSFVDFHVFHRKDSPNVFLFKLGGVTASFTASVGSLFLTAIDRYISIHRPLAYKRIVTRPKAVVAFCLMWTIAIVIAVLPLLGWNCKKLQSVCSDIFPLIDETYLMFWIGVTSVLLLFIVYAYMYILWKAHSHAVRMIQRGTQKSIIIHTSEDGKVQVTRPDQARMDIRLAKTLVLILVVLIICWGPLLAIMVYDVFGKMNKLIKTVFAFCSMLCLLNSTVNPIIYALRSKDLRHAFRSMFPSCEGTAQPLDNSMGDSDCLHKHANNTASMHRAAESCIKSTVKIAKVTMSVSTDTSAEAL
(§1) All the cannabinoids discussed in this invention are tested for their ability to bind to CB 1 and CB2 receptors using membranes from rat brain or HEK293 cells expressing either mCB2 or hCB2, respectively via competition-equilibrium binding using [^3H]CP-55,940. Results are analyzed using nonlinear regression to determine ligand IC50 (Prism by GraphPad Software, Inc.), and Ki values are calculated from the IC50. IC50 and Ki values are determined from at least three independent experiments.
(§2) Some disclosed compounds were tested for CB1 and CB2 receptor binding affinity, which can be represented by a Ki value. The Ki value is the affinity constant and describes the affinity of the compound for the receptor. […] A detailed description of the methods used to test binding affinity of compounds is given in US 2007/0135388 and in Papahatjis, et al., J. Med. Chem. (2007) 4048, the content of each of which is hereby incorporated by reference.

For another test, the target named is T2, mCB2 (Mus musculus, UniProt P47936).
T2 construct: expressed in transfected cells; host or cells: HEK293
T2 sequence (P47936 whole entry): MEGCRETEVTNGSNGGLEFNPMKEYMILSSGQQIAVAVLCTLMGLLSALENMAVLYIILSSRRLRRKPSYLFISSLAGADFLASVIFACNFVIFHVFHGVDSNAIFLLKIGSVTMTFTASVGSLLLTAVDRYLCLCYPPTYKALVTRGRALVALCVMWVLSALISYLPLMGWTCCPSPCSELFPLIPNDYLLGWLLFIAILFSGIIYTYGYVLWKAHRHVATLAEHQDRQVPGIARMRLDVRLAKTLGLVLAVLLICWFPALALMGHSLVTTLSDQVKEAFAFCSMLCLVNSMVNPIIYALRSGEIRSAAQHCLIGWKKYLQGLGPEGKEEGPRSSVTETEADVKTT
Briefly: mCB2 competition-equilibrium binding with [3H]CP-55,940, HEK293 membranes. As to the method:
(§3) HEK293 cells expressing hCB1 or hCB2 or mCB2 receptor are used for membrane preparations according to Abadji et al. The resulting pellet is resuspended in 10 mM Tris-chloride, pH 7.4, with 5 mM MgCl2 and 2 mM EDTA (TME), rapidly frozen in liquid nitrogen and stored at −80° C. for no longer than two months. Protein content is assayed by using the Bio-Rad protein assay according to the manufacturer's protocol.
as §1, §2

The target in a further test is T3, hCB2 (Homo sapiens, UniProt P34972).
T3 construct: expressed in transfected cells; host or cells: HEK293
T3 sequence (P34972 whole entry): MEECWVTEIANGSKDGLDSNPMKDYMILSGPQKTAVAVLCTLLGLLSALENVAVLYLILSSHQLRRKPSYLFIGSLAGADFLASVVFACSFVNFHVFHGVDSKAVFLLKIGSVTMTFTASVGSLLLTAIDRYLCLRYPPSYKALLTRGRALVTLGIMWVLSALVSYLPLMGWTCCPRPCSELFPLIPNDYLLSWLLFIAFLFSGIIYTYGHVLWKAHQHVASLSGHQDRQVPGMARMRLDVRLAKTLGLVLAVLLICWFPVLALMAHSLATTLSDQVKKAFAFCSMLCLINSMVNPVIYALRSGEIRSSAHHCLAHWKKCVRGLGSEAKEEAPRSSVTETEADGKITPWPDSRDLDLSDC
Briefly: hCB2 competition-equilibrium binding with [3H]CP-55,940, HEK293 membranes. As to the method:
as §3, §1, §2

In test [2] the target is T1, rCB1. Briefly: cAMP assay, rCB1. The format is cell-based. As to conditions: for Emax: cAMP assay. As to the method: Functional characterization of some of the disclosed compounds was performed by using the cyclic adenosine monophosphate (cAMP) assay. The functional potency of the compound in the cAMP assay is represented by the EC50 value. The lower the EC50 value, the higher the functional potency. A detailed description of the cyclic adenosine monophosphate (cAMP) assay is given in Nikas et al. J. Med. Chem. (2010) 6996, the content of which is incorporated herein by reference. Table 10 lists the EC50 values of certain compounds of Formula (Je) in the cAMP assay.

Broadly, the Ki is a dissociation constant, usually derived from enzyme kinetics or from competition with a known ligand. Take `CCCCOC(=O)C1(c2cc(O)c3c(c2)OC(C)(C)C2CCC(=O)CC32)CCCC1` (stereo not drawn) [AM8137]: at rCB1 [1], the affinity, expressed as Ki, was 0.4 ± 0.01 nM.
As to `CC1(C)Oc2cc(C3(C(=O)O)CCCC3)cc(O)c2C2CC(=O)CCC21` (stereo not drawn) [AM8139], the Ki on mCB2, at hCB2 and at rCB1 [1] was over 1000 nM in each case.
For `CC1=CC[C@H]2[C@@H](C1)c1c(O)cc(C(C)(C)C(=O)OCCCCC#N)cc1OC2(C)C` [Compound 1.3, 4-cyanobutyl-2-((6aS, 10aR)-6a, 7, 10, 10a-tetrahydro-1-hydroxy-6,6,9-trimethyl-6H-benzo[c]chromen-3-yl)-2-methylpropanoate], the inhibitory constant (Ki) at mCB2 (HEK293 cells expressing mCB2, Tables 5-8, read-out: mCB2 Ki) is 0.5 nM.
For `CC1=CC[C@@H]2[C@@H](C1)c1c(O)cc(C(C)(C)C(=O)OCCCN3CCOCC3)cc1OC2(C)C` [Compound 1.25, 3-morpholinopropyl 2-((6aR, 10aR)-1-hydroxy-6,6,9-trimethyl-6a,7, 10, 10a-tetrahydro-6H-benzo[c]chromen-3-yl)-2-methylpropanoate], at mCB2, the inhibition constant (Ki) worked out at 104 nM.
For the compound `CC(C)(C(=O)OCCCC#N)c1cc(O)c2c(c1)OC(C)(C)[C@@H]1CC=C(CO)C[C@@H]21` [Compound 2.5], the inhibitory constant (Ki) on mCB2, on hCB2 and at rCB1 [1] was 1 nM each time.
For `CCCCOC(=O)C(C)(C)c1cc(O)c2c(c1)OC(C)(C)[C@@H]1CC[C@H](O)C[C@@H]21` [Compound 3.8, Butyl-2-((6aR,9S, 10aR)-6a,7,8,9, 10, 10a-hexahydro-1,9-dihydroxy-6,6-dimethyl-6H-benzo[c]chromen-3-yl)-2-methylpropanoate], the affinity on mCB2 corresponds to a Ki of 0.6 nM.
On to `CCCCCCC(C)(C)c1cc(O)c2c(c1)OC(C)(C)[C@@H]1CCOC(=O)C[C@@H]21` [Compound 3.11, (5aR, 11bR)-11-hydroxy-6,6-dimethyl-9-(2-methyloctan-2-yl)-4,5,5a,6-tetrahydro-1H-oxepino[4,5-c]chromen-2(11bH)-one], for which affinity on mCB2 was put at a Ki of 8 nM.
`CCOC(=O)C(C)(C)c1cc(O)c(-c2cccc(C#N)c2)c(O)c1` [Compound 4.2, Ethyl 2-(3′-cyano-2,6-dihydroxybiphenyl-4-yl)-2-methylpropanoate]: the Ki at rCB1 [1] (rat brain membranes, Tables 5-8, read-out: rCB1 Ki) amounted to 3.66 nM.
For the compound `CC(C)(C(=O)OCCCI)c1cc(O)c2c(c1)OC(C)(C)[C@@H]1CCC(=O)C[C@@H]21` [Compound 7, 3-Iodopropyl-2-((6aR,10aR)-1-hydroxy-6,6-dimethyl-9-oxo-6a,7,8,9,10,10a-hexahydro-6H-benzo[c]chromen-3-yl)-2-methylpropanoate], the figures for the Ki at mCB2, on hCB2 and at rCB1 [1] were 1.2 ± 0.6 nM, 5.3 ± 0.9 nM and 0.1 ± 0.04 nM, respectively.
Usually EC50 stands for the concentration at which the effect is half-maximal. Higher therefore signals lower potency in that assay. As a reminder, the Emax is the size of the effect at its maximum, as opposed to the concentration needed. With `CC(C)(C(=O)OCCCN=C=S)c1cc(O)c2c(c1)OC(C)(C)[C@@H]1CCC(=O)C[C@@H]21` [Compound 10, 3-Isothiocyanatopropyl-2-((6aR,10aR)-1-hydroxy-6,6-dimethyl-9-oxo-6a,7,8,9,10,10a-hexahydro-6H-benzo[c]chromen-3-yl)-2-methylpropanoate], the Ki on mCB2 was determined as 20 nM; on hCB2, 22 nM; on rCB1 [1], 7.9 nM. For the same compound, at rCB1 [2], a half-maximal effect (EC50) was put at 13.8 nM. In addition, the Emax on rCB1 [2] is 38%.
Consider `CC(C)(CC(=O)O)c1cc(O)c2c(c1)OC(C)(C)[C@@H]1CCC(=O)C[C@@H]21` [Compound 19, 3-((6aR,10aR)-1-Hydroxy-6,6-dimethyl-9-oxo-6a,7,8,9,10,10a-hexahydro-6H-benzo[c]chromen-3-yl)-3-methylbutanoic acid], for which the Ki on mCB2, at hCB2 and on rCB1 [1] was over 1000 nM throughout.
Turning to `COC(=O)CCC(C)(C)c1cc(O)c2c(c1)OC(C)(C)[C@@H]1CCC(=O)C[C@@H]21` [Compound 23, Methyl-4-((6aR,10aR)-1-hydroxy-6,6-dimethyl-9-oxo-6a,7,8,9,10,10a-hexahydro-6H-benzo[c]chromen-3-yl)-4-methylpentanoate], the Ki at mCB2 stood at 540 ± 46.7 nM; at hCB2 it was 560 ± 64.3 nM; on rCB1 [1], 270 ± 34.6 nM.
With `CC(C)(C(=O)O)c1cc(O)c2c(c1)OC(C)(C)[C@@H]1CCC(=O)C[C@@H]21` [Compound 32, 2-[(6aR,10aR)-6a,7,8,9,10,10a-Hexahydro-1-hydroxy-6,6-dimethyl-9-oxo-6H-benzo[c]chromen-3-yl]-2-methylpropanoic acid], the inhibition constant Ki on mCB2, on hCB2 and on rCB1 [1] was over 1000 nM in each case.
Consider `CCOC(=O)C(C)(C)c1cc(O)c2c(c1)OC(C)(C)[C@@H]1CCC(=O)C[C@@H]21` [Compound 34a, Ethyl 2-((6aR,10aR)-1-hydroxy-6,6-dimethyl-9-oxo-6a,7,8,9,10,10a-hexahydro-6H-benzo[c]chromen-3-yl)-2-methylpropanoate], for which the inhibitory constant (Ki) on mCB2 is 89.7 ± 18.1 nM; at hCB2, 67.5 ± 13.4 nM; at rCB1 [1], 36.7 ± 5.6 nM.
For `CCCOC(=O)C(C)(C)c1cc(O)c2c(c1)OC(C)(C)[C@@H]1CCC(=O)C[C@@H]21` [Compound 34b, Propyl 2-((6aR,10aR)-1-hydroxy-6,6-dimethyl-9-oxo-6a,7,8,9,10,10a-hexahydro-6H-benzo[c]chromen-3-yl)-2-methylpropanoate] the same measures were 32 ± 5.2 nM, 8.3 ± 3.1 nM and 4.8 ± 0.8 nM.
`CCCCCCOC(=O)C(C)(C)c1cc(O)c2c(c1)OC(C)(C)[C@@H]1CCC(=O)C[C@@H]21` [Compound 34d, Hexyl 2-((6aR,10aR)-1-hydroxy-6,6-dimethyl-9-oxo-6a,7,8,9,10,10a-hexahydro-6H-benzo[c]chromen-3-yl)-2-methylpropanoate]: the Ki on mCB2 is 30 ± 7.3 nM; at hCB2 it was 15.1 ± 2.2 nM; on rCB1 [1], 5.9 ± 1.2 nM.
For `CCC[C@H](C)OC(=O)C(C)(C)c1cc(O)c2c(c1)OC(C)(C)[C@@H]1CCC(=O)C[C@@H]21` [Compound 34e, (S)-pentan-2-yl 2-((6aR,10aR)-1-hydroxy-6,6-dimethyl-9-oxo-6a,7,8,9,10,10a-hexahydro-6H-benzo[c]chromen-3-yl)-2-methylpropanoate], the Ki was 54 ± 10.6 nM at mCB2, 12.4 ± 2.5 nM on hCB2 and 3 ± 0.5 nM at rCB1 [1]. Also, a half-maximal response on rCB1 [2] (EC50) required 2.9 nM. This compound returned an Emax on rCB1 [2] of 58%.
Turning to `CCCCNC(=O)C(C)(C)c1cc(O)c2c(c1)OC(C)(C)[C@@H]1CCC(=O)C[C@@H]21` [Compound 34i, N-Butyl-2-((6aR,10aR)-1-hydroxy-6,6-dimethyl-9-oxo-6a,7,8,9,10,10a-hexahydro-6H-benzo[c]chromen-3-yl)-2-methylpropanamide], the inhibition constant Ki on mCB2 is over 1000 nM; on hCB2, over 1000 nM; on rCB1 [1], 115 ± 21.6 nM.
On to `CC(C)(C(=O)OCCCCBr)c1cc(O)c2c(c1)OC(C)(C)[C@@H]1CCC(=O)C[C@@H]21` [Compound 36, 4-Bromobutyl 2-((6aR,10aR)-1-hydroxy-6,6-dimethyl-9-oxo-6a,7,8,9,10,10a-hexahydro-6H-benzo[c]chromen-3-yl)-2-methylpropanoate], for which the Ki at mCB2 came out at 1.8 nM; on rCB1 [1], 0.002 nM.
Regarding `CC(C)(C(=O)OCCCCN=[N+]=[N-])c1cc(O)c2c(c1)OC(C)(C)[C@@H]1CCC(=O)C[C@@H]21` [Compound 37, 4-Azidobutyl 2-((6aR,10aR)-1-hydroxy-6,6-dimethyl-9-oxo-6a,7,8,9,10,10a-hexahydro-6H-benzo[c]chromen-3-yl)-2-methylpropanoate], the Ki is 4.5 nM on mCB2, 1.7 nM on hCB2 and 1.7 nM at rCB1 [1].
For `CC(C)(C(=O)OCCCCN=C=S)c1cc(O)c2c(c1)OC(C)(C)[C@@H]1CCC(=O)C[C@@H]21` [Compound 38, 4-Isothiocyanatobutyl 2-((6aR,10aR)-1-hydroxy-6,6-dimethyl-9-oxo-6a,7,8,9,10,10a-hexahydro-6H-benzo[c]chromen-3-yl)-2-methylpropanoate], the Ki was determined as 21.4 nM at mCB2, 5.2 nM at hCB2 and 4.9 nM on rCB1 [1].
With `CC(C)(C(=O)OCCCCO[N+](=O)[O-])c1cc(O)c2c(c1)OC(C)(C)[C@@H]1CCC(=O)C[C@@H]21` [Compound 39, 4-(Nitrooxy)butyl 2-((6aR,10aR)-1-hydroxy-6,6-dimethyl-9-oxo-6a,7,8,9,10,10a-hexahydro-6H-benzo[c]chromen-3-yl)-2-methylpropanoate], the Ki on mCB2 was determined as 2.2 nM; on hCB2, 2.6 nM; on rCB1 [1] it was 0.2 nM.
